Experimental data from paper PMC10927086, “Effects of structurally distinct human HDAC6 and HDAC6/HDAC8 inhibitors against S. mansoni larval and adult worm stages” (PLOS Neglected Tropical Diseases, 2024).

Tests used:
[1] = MTT cytotoxicity assay on BJ fibroblasts; type: cell-based; conditions: human, compounds 100-0.78 μM, GA 10-0.078 μM, 2 independent experiments
Experimental: (§1) The NCTC clone 929 (L-929) murine fibroblast isolated from subcutaneous connective tissue (ATCC-CCL-1) were cultured in Dulbecco’s Modified Eagle Medium (DMEM) supplemented with 10 mM Hepes (pH 6.98–7.30), 1 mM l-glutamine, 100 U/ml of penicillin/streptomycin (BioWhittaker, Lonza, EuroClone SpA), and heat-inactivated 10% FBS. All cells were cultured at 37°C in a 5% CO2 humidified incubator.
(§2) The MTT method was employed as previously described to determine the viability of fibroblast cell lines. Briefly, cells seeded into 96-well plates at a density of 20,000 cells/well after overnight incubation, were exposed to selected compounds at the indicated concentrations for 24–72 h. Next they were gently washed, incubated with MTT (bromuro di 3-(4,5-dimetiltiazol-2-il)-2,5-diphenyltetrazolium) for 4 h, and processed for color detection with DMSO. The resulting purple solution was spectrophotometrically measured at 570 nm using a Varioskan Lux instrument and Skanit software (Thermo Fisher Scientific).
(§3) The optical density values for both assays were expressed as a percentage of cell survival and normalized with the value of cells treated with vehicle (DMSO), and the data were analyzed using GraphPad Prism v9.5.1 software (San Diego, CA, USA).
(§4) The cytotoxicity of the hit compounds was assessed in two independent experiments on murine L929 and human BJ fibroblasts at 24 h by MTT assays. Vehicle (DMSO) and Gambogic acid (GA) were used as negative and positive control respectively. The compounds show a safe profile on both cell lines (S2 Table).
(§5) The IC50(μM) shown was calculated by dose-response curves of the compounds on murine L929 and human BJ fibroblast cells. […] The data are representative of 2 independent experiments. Gambogic acid (GA) and vehicle (DMSO) were used as positive and negative controls respectively. (DOCX)

[2] = MTT cytotoxicity assay on L929 fibroblasts; type: cell-based, murine; conditions: mouse, compounds 100-0.78 μM, GA 10-0.078 μM, 2 independent experiments
Experimental: as §1, §2, §3, §4, §5

[3] = tested on: S. mansoni eggs laid by worm pairs; experiment: Egg counts and egg maturation staging (Vogel and Prata) in vitro; type: cell-based, Schistosoma mansoni; conditions: exp4
Text: The eggs produced by worm pairs in vitro were counted at day 3 upon treatment using an inverted Leica DM IL microscope (Leica Microsystems, Wetzlar, Germany). Images were captured with a BX41 Olympus (Olympus, Tokyo, Japan) microscope and a brightfield objective 10× served by an Olympus DP23 microscope digital camera and visualized using “CellSens Entry” software (version 3.1.1). Egg maturation morphological score was assigned based on the Vogel and Prata’s staging system of egg maturation previously reported.
Therefore at 72 h upon worm pairs treatment the eggs were counted and classified by microscopic observation according to the Vogel and Prata staging system of egg maturation and grouped as immature (stages I and II), intermediate/developed (stages III–V), viable or damaged eggs.
Panel B. Histograms represent the percentages of eggs at different maturation stages +/- SEM counted at 72 h after treatment; 5–6 microscopy images of at least 3 independent experiments were analyzed. Filled red triangles indicate viable eggs at stages I–II (immature); empty red triangles indicate damaged/morphological abnormal eggs at stages I–II (immature); filled red arrows indicate viable eggs at stages III–V (intermediate/developed); empty red arrows indicate damaged/morphological abnormal eggs at stages III-V; ef, egg fragments; sp, sperm cells; oc, oocyte. Scale Bars = 200 μm.

SMILES | IC50 at 24 h [1] [nM] | IC50 at 24 h [2] [nM] | % Stage I/II damaged [3] [%] | % Stage I/II viable [3] [%] | %Stage II/IV/V viable [3] [%] | %Stage III/IV/V damaged [3] [%] | Stage I/II damaged counts [3] | Stage I/II viable (egg counts) [3] | Stage II/IV/V viable (egg counts) [3] | Stage III/IV/V damaged (egg counts) [3] | egg counts [3]
CC(C)=CCC[C@]1(C)C=Cc2c(O)c3c(c(CC=C(C)C)c2O1)O[C@]12C(=C[C@@H]4C[C@H]1C(C)(C)O[C@@]2(C/C=C(/C)C(=O)O)C4=O)C3=O [GA, Gambogic acid, reference compound] | 350 | 500 | – | – | – | – | – | – | – | – | –
CC(/C=C/C(=O)NO)=C\[C@@H](C)C(=O)c1ccc(N(C)C)cc1 [TSA, Trichostatin A, reference compound] | – | – | 100.0 | 0.0 | 0.0 | 0.0 | 1431 | 0 | 0 | 0 | 1431
